Source: US20240024273A1, “TOPICAL ADMINISTRATION OF 2-(DIETHYLAMINO)ETHYL 2-(4-ISOBUTYLPHENYL)PROPRIONATE FOR TREATMENT OF DISEASES” (TECHFIELDS PHARMA CO., LTD., priority 2020, published 2024)

Test system: Mild to Moderate Osteoarthritis of the Knee
Test: Phase 2 study: use of rescue medication (paracetamol)
Format: in vivo, human
Settings: for Percentage of patients using rescue medication: only for knee pain
Protocol: Subjects taking nonsteroidal anti-inflammatory drugs (NSAID) or other analgesics may enroll in the trial, but will discontinue any analgesic therapy for the duration of the study, starting at least 4 days (or 5 half lives, whichever is longer) prior to administration of the first dose of study medication (i.e., for an analgesic washout period before Day 1). Subjects will be allowed to take rescue medication (up to six 325 mg tablets [total of 1950 mg] of acetaminophen per day; provided by the Sponsor) for residual knee or other body pain starting 4 days (or 5 half lives, whichever is longer) prior to administration of the first dose of study medication except during the 24 hours prior to Baseline (Day 1), Week 2, Week 4, Week 8, Week 12/end of study (EOS), and Follow up assessments.
Subjects will record the following information in a Daily Diary starting at Screening: the amount of knee pain in the target knee while walking during the preceding 24 hours (using a 100 mm visual analog scale [VAS]), the times and number of sprays for each administration of study medication, the times when the subject washes his/her knees and/or takes a shower, the number of tablets of rescue medication taken that day and the times taken, the reason for taking the rescue medication (e.g., knee pain, headache, low back pain), any other concomitant medications taken that day, and any AEs occurring that day.
3.9.3. Exploratory Efficacy Endpoints: • 1. Subject's global assessment of disease status of the target knee at 2, 4, 8, and 12 weeks of treatment; • 2. Investigator's global assessment of disease status of the target knee at 2, 4, 8, and 12 weeks of treatment; • 3. Subject's global assessment of response to therapy of the target knee at 2, 4, 8, and 12 weeks of treatment; • 4. Investigator's global assessment of response to therapy of the target knee at 2, 4, 8, and 12 weeks of treatment; • 5. Change from Baseline over time in VAS pain scores for the target knee from Daily Diary data; • 6. Amount of rescue medication (acetaminophen) consumed per day for target knee pain.
Zeidler thought that paracetamol as rescue medication in nearly all OA trials may be a missing link to explain at least partially the large placebo response in OA trials. (Henning Zeidler, Paracetamol and the Placebo Effect in Osteoarthritis Trials: A Missing Link? Pain Research and Treatment, Volume 2011, 1-6.) From published data, the difference of the used amount of paracetamol is very small between the placebo and active drug cohorts. […] (T. J. Schnitzer, A. Kivitz, H. Frayssinet, and B. Duquesroix, “Efficacy and safety of naproxcinod in the treatment of patients with osteoarthritis of the knee: a 13-week prospective, randomized, multicenter study.” Osteoarthritis and Cartilage, vol. 18, no. 5, pp. 629-639, 2010.) In this trial, NSAIDs or any analgesic therapy was discontinued for the duration of the study, starting at least 14 days (or 5 half lives, whichever is longer) prior to administration of the first dose of study medication (ie, for an analgesic washout period before Day 1). Subjects were allowed to take rescue medication (up to six 325 mg tablets [total of 1950 mg] of acetaminophen per day; provided by the Sponsor) for residual knee or other body pain starting at least 4 days (or 5 half lives, whichever is longer) prior to administration of the first dose of study medication except during the 24 hours prior to Baseline (Day 1), Week 2, Week 4, Week 8, Week 12/end of study (EOS), and Follow-up assessments.

[1] = 8.75 mg/knee (BID), Day −2 to day −5 (baseline)
[2] = 17.5 mg/knee (BID), Day −2 to day −5 (baseline)
[3] = 35 mg/knee (BID), Day −2 to day −5 (baseline)
[4] = for all pain and other conditions, 8.75 mg/knee (BID), Week 2
[5] = for all pain and other conditions, 8.75 mg/knee (BID), Week 4
[6] = for all pain and other conditions, 8.75 mg/knee (BID), Week 8
[7] = for all pain and other conditions, 8.75 mg/knee (BID), Week 12
[8] = for all pain and other conditions, 17.5 mg/knee (BID), Week 2
[9] = for all pain and other conditions, 17.5 mg/knee (BID), Week 4
[10] = for all pain and other conditions, 17.5 mg/knee (BID), Week 8
[11] = for all pain and other conditions, 17.5 mg/knee (BID), Week 12
[12] = for all pain and other conditions, 35 mg/knee (BID), Week 2
[13] = for all pain and other conditions, 35 mg/knee (BID), Week 4
[14] = for all pain and other conditions, 35 mg/knee (BID), Week 8
[15] = for all pain and other conditions, 35 mg/knee (BID), Week 12

## CCN(CC)CCOC(=O)C(C)c1ccc(CC(C)C)cc1 (stereo not drawn) [2-(diethylamino)ethyl 2-(4-isobutylphenyl)propionate]
8.75 mg/knee
  patients using rescue medication at the end of the study: 17.3%
[1]
  Rescue medication (paracetamol) only for knee pain, daily amount: 349 mg/day/patient
  Percentage of patients using rescue medication: 35.3%
8.75 mg/knee (BID), Week 2
  Rescue medication (paracetamol) only for knee pain, daily amount: 216 mg/day/patient
  Rescue medication (paracetamol), % of decrease from baseline: 38.1%
  Percentage of patients using rescue medication: 23.6%
8.75 mg/knee (BID), Week 4
  Rescue medication (paracetamol) only for knee pain, daily amount: 167 mg/day/patient
  Rescue medication (paracetamol), % of decrease from baseline: 52.1%
  Percentage of patients using rescue medication: 18.4%
8.75 mg/knee (BID), Week 8
  Rescue medication (paracetamol) only for knee pain, daily amount: 166 mg/day/patient
  Rescue medication (paracetamol), % of decrease from baseline: 52.4%
  Percentage of patients using rescue medication: 17.1%
8.75 mg/knee (BID), Week 12
  Rescue medication (paracetamol) only for knee pain, daily amount: 159 mg/day/patient
  Rescue medication (paracetamol), % of decrease from baseline: 54.4%
  Percentage of patients using rescue medication: 16.3%
17.5 mg/knee
  patients using rescue medication at the end of the study: 6.5%
[2]
  Rescue medication (paracetamol) only for knee pain, daily amount: 243 mg/day/patient
  Percentage of patients using rescue medication: 24.0%
17.5 mg/knee (BID), Week 2
  Rescue medication (paracetamol) only for knee pain, daily amount: 86 mg/day/patient
  Rescue medication (paracetamol), % of decrease from baseline: 64.6%
  Percentage of patients using rescue medication: 11.3%
17.5 mg/knee (BID), Week 4
  Rescue medication (paracetamol) only for knee pain, daily amount: 67 mg/day/patient
  Rescue medication (paracetamol), % of decrease from baseline: 72.4%
  Percentage of patients using rescue medication: 8.4%
17.5 mg/knee (BID), Week 8
  Rescue medication (paracetamol) only for knee pain, daily amount: 54 mg/day/patient
  Rescue medication (paracetamol), % of decrease from baseline: 77.8%
  Percentage of patients using rescue medication: 7.2%
17.5 mg/knee (BID), Week 12
  Rescue medication (paracetamol) only for knee pain, daily amount: 56 mg/day/patient
  Rescue medication (paracetamol), % of decrease from baseline: 77.0%
  Percentage of patients using rescue medication: 6.5%
17.5 mg/knee and 35 mg/knee groups, week 12
  use of rescue medication for all pain and other conditions: less than 100 mg/day/patient
35 mg/knee
  patients using rescue medication at the end of the study: 5.8%
[3]
  Rescue medication (paracetamol) only for knee pain, daily amount: 291 mg/day/patient
  Percentage of patients using rescue medication: 34.8%
35 mg/knee (BID), Week 2
  Rescue medication (paracetamol) only for knee pain, daily amount: 98 mg/day/patient
  Rescue medication (paracetamol), % of decrease from baseline: 66.3%
  Percentage of patients using rescue medication: 12.4%
35 mg/knee (BID), Week 4
  Rescue medication (paracetamol) only for knee pain, daily amount: 88 mg/day/patient
  Rescue medication (paracetamol), % of decrease from baseline: 69.8%
  Percentage of patients using rescue medication: 11.0%
35 mg/knee (BID), Week 8
  Rescue medication (paracetamol) only for knee pain, daily amount: 54 mg/day/patient
  Rescue medication (paracetamol), % of decrease from baseline: 81.4%
  Percentage of patients using rescue medication: 7.6%
35 mg/knee (BID), Week 12
  Rescue medication (paracetamol) only for knee pain, daily amount: 44 mg/day/patient
  Rescue medication (paracetamol), % of decrease from baseline: 84.9%
  Percentage of patients using rescue medication: 5.8%
For all pain and other conditions, 8.75 mg/knee (BID), Day −2 to day −5 (baseline)
  Daily amount of rescue medication (paracetamol): 364 mg/day/patient
[4]
  Daily amount of rescue medication (paracetamol): 263 mg/day/patient
  Rescue medication (paracetamol), % of decrease from baseline: 27.7%
[5]
  Daily amount of rescue medication (paracetamol): 208 mg/day/patient
  Rescue medication (paracetamol), % of decrease from baseline: 42.9%
[6]
  Daily amount of rescue medication (paracetamol): 210 mg/day/patient
  Rescue medication (paracetamol), % of decrease from baseline: 42.3%
[7]
  Daily amount of rescue medication (paracetamol): 209 mg/day/patient
  Rescue medication (paracetamol), % of decrease from baseline: 42.6%
For all pain and other conditions, 17.5 mg/knee (BID), Day −2 to day −5 (baseline)
  Daily amount of rescue medication (paracetamol): 278 mg/day/patient
[8]
  Daily amount of rescue medication (paracetamol): 136 mg/day/patient
  Rescue medication (paracetamol), % of decrease from baseline: 51.1%
[9]
  Daily amount of rescue medication (paracetamol): 115 mg/day/patient
  Rescue medication (paracetamol), % of decrease from baseline: 58.6%
[10]
  Daily amount of rescue medication (paracetamol): 87 mg/day/patient
  Rescue medication (paracetamol), % of decrease from baseline: 68.7%
[11]
  Daily amount of rescue medication (paracetamol): 69 mg/day/patient
  Rescue medication (paracetamol), % of decrease from baseline: 75.2%
For all pain and other conditions, 35 mg/knee (BID), Day −2 to day −5 (baseline)
  Daily amount of rescue medication (paracetamol): 310 mg/day/patient
[12]
  Daily amount of rescue medication (paracetamol): 171 mg/day/patient
  Rescue medication (paracetamol), % of decrease from baseline: 44.8%
[13]
  Daily amount of rescue medication (paracetamol): 158 mg/day/patient
  Rescue medication (paracetamol), % of decrease from baseline: 49.0%
[14]
  Daily amount of rescue medication (paracetamol): 111 mg/day/patient
  Rescue medication (paracetamol), % of decrease from baseline: 64.2%
[15]
  Daily amount of rescue medication (paracetamol): 94 mg/day/patient
  Rescue medication (paracetamol), % of decrease from baseline: 69.7%
For other conditions excluding knee pain, 8.75 mg/knee (BID), Day −2 to day −5 (baseline)
  Daily amount of rescue medication (paracetamol): 15 mg/day/patient
For other conditions excluding knee pain, 8.75 mg/knee (BID), Week 2
  Daily amount of rescue medication (paracetamol): 47 mg/day/patient
For other conditions excluding knee pain, 8.75 mg/knee (BID), Week 4
  Daily amount of rescue medication (paracetamol): 41 mg/day/patient
For other conditions excluding knee pain, 8.75 mg/knee (BID), Week 8
  Daily amount of rescue medication (paracetamol): 44 mg/day/patient
For other conditions excluding knee pain, 8.75 mg/knee (BID), Week 12
  Daily amount of rescue medication (paracetamol): 50 mg/day/patient
For other conditions excluding knee pain, 17.5 mg/knee (BID), Day −2 to day −5 (baseline)
  Daily amount of rescue medication (paracetamol): 35 mg/day/patient
For other conditions excluding knee pain, 17.5 mg/knee (BID), Week 2
  Daily amount of rescue medication (paracetamol): 50 mg/day/patient
For other conditions excluding knee pain, 17.5 mg/knee (BID), Week 4
  Daily amount of rescue medication (paracetamol): 48 mg/day/patient
For other conditions excluding knee pain, 17.5 mg/knee (BID), Week 8
  Daily amount of rescue medication (paracetamol): 33 mg/day/patient
For other conditions excluding knee pain, 17.5 mg/knee (BID), Week 12
  Daily amount of rescue medication (paracetamol): 13 mg/day/patient
For other conditions excluding knee pain, 35 mg/knee (BID), Day −2 to day −5 (baseline)
  Daily amount of rescue medication (paracetamol): 19 mg/day/patient
For other conditions excluding knee pain, 35 mg/knee (BID), Week 2
  Daily amount of rescue medication (paracetamol): 73 mg/day/patient
For other conditions excluding knee pain, 35 mg/knee (BID), Week 4
  Daily amount of rescue medication (paracetamol): 70 mg/day/patient
For other conditions excluding knee pain, 35 mg/knee (BID), Week 8
  Daily amount of rescue medication (paracetamol): 57 mg/day/patient
For other conditions excluding knee pain, 35 mg/knee (BID), Week 12
  Daily amount of rescue medication (paracetamol): 50 mg/day/patient
In vivo
  maximum decrease of rescue medication for all pain, pre-treatment to week 12: up to 75%
pre-treatment to week 12
  maximum decrease in the use of rescue medication, paracetamol: 84.9%
